# PMC12668308, “A Novel Antimalarial Agent that Inhibits Protein Synthesis in Plasmodium falciparum” (Angewandte Chemie (International Ed. in English), 2025)
# Legend:
# Assay in all cases: iSPP profiling, P. falciparum lysate
# Format in all cases: binding, Plasmodium falciparum
# [1] = tested on: Dual specificity protein phosphatase (W7KAW5); conditions: 100 µM compound 34
# Protocol: (§1) P. falciparum NF54 lysates were extracted as described in ^[26^] . The parasite asynchronous culture was extracted once 3-5% parasitemia was reached. Saponin lysis was done as described in 2.2.10. Once the parasite pellet was obtained, 2.5 volumes of ice-cold lysis buffer (50 mM Tris/HCl pH 7.5 (Avantor), 5% glycerol (Sigma-Aldrich), 150 mM NaCl (Carl Roth), 1.5 mM MgCl2 (Sigma-Aldrich), 1 mM DTT (Carl Roth), 0.8% IGEPAL CA-630 (Sigma-Aldrich), 1X Halt Protease and Phosphatase Inhibitor-Cocktails EDTA-free (Thermo Fisher Scientific)) was added to the parasite pellet. The lysate solution was subjected to three cycles of flash freeze-thaw with liquid nitrogen and ddH2O at RT. The lysates were centrifuged at 20,000 g for 20 minutes at 4 °C. The soluble protein fraction (supernatant) was collected and the protein content was quantified using the BCA assay (Pierce™ BCA Protein Assay Kit, Thermo Fisher Scientific). The lysate was stored at -80 °C until further use.
# (§2) The P. falciparum lysate was thawed on ice and diluted to 0.8 mg/mL. The lysate was aliquoted, and each aliquot was incubated with either a vehicle control (DMSO), 34 (dissolved in DMSO), or varying concentrations of 31 (dissolved in DMSO) at 0.01 µM, 0.1 µM, 10 µM, 50 µM, and 100 µM. Subsequently, the samples were incubated at room temperature for 30 minutes using a rotating mixer. After distribution into a 96-well plate, the samples were treated with increasing concentrations of A.E.A. (v/v) ranging from 14% to 28% (14, 16, 18, 20, 22, 24, 26, and 28%). Following a 20-minute incubation at 37°C with shaking at 750 rpm, the samples were centrifuged at 4400 g for 35 minutes to remove precipitated proteins. The soluble fractions were then pooled in equal volumes into a single sample using the Bravo Automated Liquid Handling Platform. The pooled samples were subsequently prepared for LC-MS/MS analysis.
# (§3) The raw LFQ-DIA intensity values of biological replicates across all conditions were normalized to the median abundance using Excel. The normalized values were then log2 transformed in Perseus (v2.0.10.0).^[58^] Missing values were imputed from a normal distribution (width 0.3, down shift 1.5), and p-values were obtained using a two-sample t-test over replicates with a permutation-based false discovery rate correction (FDR 0.05). Volcano plots were generated in RStudio using the EnhancedVolcano package (v. 1.20.0), ^[59^] plotting proteins by statistical significance (y-axis: –Log10 p-value) versus the magnitude of change (x-axis: log2 fold change of protein intensities for each compound condition relative to the vehicle control). The heatmap was generated in Perseus (v2.0.10.0). Dose-dependent curves were generated using normalized protein intensity values, expressed as a ratio to the vehicle control. Plots were created in GraphPad Prism (v8.3.0) using a nonlinear regression model.
# [2] = tested on: RRM domain-containing protein (W7KAG3); conditions: 100 µM compound 34
# Protocol: as §1, §2, §3
# [3] = tested on: Plasmodium RESA N-terminal domain-containing protein (W7KFM4); conditions: 100 µM compound 34
# Protocol: as §1, §2, §3
# [4] = tested on: Uncharacterized protein (W7KMZ2); conditions: 100 µM compound 34
# Protocol: as §1, §2, §3
# [5] = tested on: WD repeat-containing protein 82 (W7K1H5); conditions: 100 µM compound 34
# Protocol: as §1, §2, §3
# [6] = tested on: Pre-mRNA-splicing factor BUD31 (W7K941); conditions: 100 µM compound 34
# Protocol: as §1, §2, §3
# [7] = tested on: Antigen UB05 (W7JRY1); conditions: 100 µM compound 34
# Protocol: as §1, §2, §3
# [8] = tested on: Uncharacterized protein (W7KFE6); conditions: 100 µM compound 34
# Protocol: as §1, §2, §3
# [9] = tested on: Ubiquitin-like protein nedd8-like (W7JPX7); conditions: 100 µM compound 34
# Protocol: as §1, §2, §3
# [10] = tested on: Ribosome associated membrane protein RAMP4 (W7KMX9); conditions: 100 µM compound 34
# Protocol: as §1, §2, §3
# [11] = tested on: Uncharacterized protein (W7K0G9); conditions: 100 µM compound 34
# Protocol: as §1, §2, §3
# [12] = tested on: DNA repair and recombination protein RAD54 (W7K6H8); conditions: 100 µM compound 34
# Protocol: as §1, §2, §3
# [13] = tested on: Pre-mRNA branch site protein p14 (Fragment) (W7JRR7); conditions: 100 µM compound 34
# Protocol: as §1, §2, §3
# [14] = tested on: Stevor (W7K9U2); conditions: 100 µM compound 34
# Protocol: as §1, §2, §3
# [15] = tested on: Uncharacterized protein (W7KDE4); conditions: 100 µM compound 34
# Protocol: as §1, §2, §3
# [16] = tested on: Uncharacterized protein (W7JZL0); conditions: 100 µM compound 34
# Protocol: as §1, §2, §3
# [17] = tested on: Protein RFT1 homolog (W7JM37); conditions: 100 µM compound 34
# Protocol: as §1, §2, §3
# [18] = tested on: Uncharacterized protein (W7JSC9); conditions: 100 µM compound 34
# Protocol: as §1, §2, §3
# [19] = tested on: Erythrocyte membrane protein 1 (W7JQ66;W7K7Z8;W7KA08;W7KI56;W7KJ57); conditions: 100 µM compound 34
# Protocol: as §1, §2, §3
# [20] = tested on: Dihydrolipoyl dehydrogenase (W7JVD0); conditions: 100 µM compound 34
# Protocol: as §1, §2, §3
# [21] = tested on: 2-C-methyl-D-erythritol 4-phosphate cytidylyltransferase (W7KNE8); conditions: 100 µM compound 34
# Protocol: as §1, §2, §3
# [22] = tested on: Small nuclear ribonucleoprotein Sm D1 (W7K576); conditions: 100 µM compound 34
# Protocol: as §1, §2, §3
# [23] = tested on: Uncharacterized protein (W7KAL3); conditions: 100 µM compound 34
# Protocol: as §1, §2, §3
# [24] = tested on: Uncharacterized protein (W7KBT1); conditions: 100 µM compound 34
# Protocol: as §1, §2, §3
# [25] = tested on: Sugar phosphate phosphatase (W7K268); conditions: 100 µM compound 34
# Protocol: as §1, §2, §3
# [26] = tested on: Uncharacterized protein (W7JQ86)
# Protocol: as §1, §2, §3
compound,measurement,setting,value
"O=C(Nc1cc(CN2CCOCC2)ccc1F)c1cccc(Oc2cc(C(F)(F)F)ccn2)c1 [Compound 34, N-(2-Fluoro-5-(morpholinomethyl)phenyl)-3-((4-(trifluoromethyl)pyridin-2-yl)oxy)benzamide]",log2FC,[1],-0.5678
same,log2FC,[2],0.4449
same,log2FC,[3],0.3623
same,log2FC,[4],0.3762
same,log2FC,[5],-0.6516
same,log2FC,[6],0.5199
same,log2FC,[7],0.5651
same,log2FC,[8],0.3535
same,log2FC,[9],0.3658
same,log2FC,[10],0.4453
same,log2FC,[11],-0.3881
same,log2FC,[12],-0.7564
same,log2FC,[13],0.3601
same,log2FC,[14],0.3642
same,log2FC,[15],0.5097
same,log2FC,[16],-1.173
same,log2FC,[17],-0.6689
same,log2FC,[18],0.457
same,log2FC,[19],0.3804
same,log2FC,[20],0.3119
same,log2FC,[21],-1.336
same,log2FC,[22],0.401
same,log2FC,[23],-0.4853
same,log2FC,[24],0.318
same,log2FC,[25],-0.3813
"CN1CCN(Cc2ccc(O)c(NC(=O)c3cccc(Oc4cc(C(F)(F)F)ccn4)c3)c2)CC1 [Compound 31, N-(2-hydroxy-5-((4-methylpiperazin-1-yl)methyl)phenyl)-3-((4-(trifluoromethyl)pyridin-2-yl)oxy)benzamide]",log2FC,[26]; 10 µM,0.49
same,log2FC,[26]; 50 µM,0.58
same,log2FC,[26]; 100 µM,0.37
same,log2FC,[26]; 10^-2 µM,0.40
same,log2FC,[26]; 10^-3 µM,0.28
